From patent publication US12419857B2, “Oral topiramate suspension formulations with extended shelf stability and enhanced bioavailability” (Rosemont Pharmaceuticals Limited, priority 2018, dated 2025)
≈ marks a conversion by molar mass, not a printed value. Like-named read-outs stand apart in the source and are kept apart here.

Legend:
[1] = Dissolution testing (paddles 58 RPM) at three pH levels vs TOPAMAX 200 mg Tablets; assay type: physicochemical; details: once the suspension matrix has degraded
Protocol: Two issues were observed during the dissolution testing of the oral topiramate suspension: (i) the suspension produces very poor inter-vessel reproducibility with very large error values up until near dissolution completion and (ii) when comparing the reference tablet formulation with the suspensions very poor comparison is seen as the tablets tend to complete dissolution at a much faster rate. It was determined that both of these issues are caused by the physiochemical characteristics of the topiramate suspension vehicle and the release of the active ingredient from the suspension matrix. Once the suspension matrix is broken down, the topiramate becomes readily bioavailable. […] Changes in the physical nature of the product can also be detected with this novel testing approach.
Process validation batches were manufactured using the final production equipment and facility to cGMP and compared to a reference product (TOPAMAX® 200 mg Tablets) using dissolution (paddles 58 RPM) at three pH levels (i.e., 1.2, 4.5 and 6.8). FIG. 7. […] Thus, data support the claim that the disclosed 10 mg/ml and 20 mg/ml oral liquid topiramate suspension products are bioequivalent to the reference product TOPAMAX® 200 mg tablets (Janssen Cilag, Ltd.).

[2] = acetone, chloroform, dimethylsulfoxide, ethanol; cited from earlier work
[3] = Solubility of topiramate in water and non-aqueous reagents; assay type: physicochemical; details: for solubility: water
Excerpt: The present application discloses the first example of an aqueous suspension of topiramate with extended physicochemical stability and therapeutic bioavailability equivalent to that of commercially approved solid dose formulations. […] See, Physician's Desk Reference, 56th ed., pp. 2590-2595 (2002). Topiramate may be produced according to the processes disclosed in U.S. Pat. Nos. 4,513,006 and 5,387,700, the entire contents of which are herein incorporated by reference. Topiramate is sold in the United States under the trade name TOPAMAX® (Ortho-McNeil Pharmaceutical, Inc., Raritan, N.J., U.S.A). TOPAMAX® has been approved for use as an antiepileptic agent as an adjuvant therapy for patients with partial onset seizures, or primary generalized tonic-clonic seizures. See generally, Physician's Desk Reference, 56th ed., 2590-2595 (2002); see also, U.S. Pat. No. 4,513,006.
For drugs with low solubility and/or bioavailability at physiological pH and temperature, efforts to develop suspension formulations are often met with varying rates of success due to restrictive physiochemical parameters of the API and/or excipients. For example, while simply increasing the volume of diluent for low-solubility drugs may improve solubility, the large volume of diluent is often prohibitive from a patient perspective.
From a purely chemical perspective, topiramate is highly sensitive to heat (e.g., room temperature) and humidity (e.g., aqueous environment of liquid formulations). For example, abandoned U.S. Pat. App. No. 2006/0270611 discloses that topiramate is highly sensitive to hydrolysis in an aqueous medium and that any conventional aqueous oral solution would have a very limited shelf life. The chemical instability of topiramate is so well known, that pharmacists routinely monitor topiramate degradation by a change in physical appearance (e.g., tablet color changing from white to brown) and by an emergence of chemical breakdown byproducts (e.g., formation of sulfamate and sulphate ions and organic degradation compounds readily detected by HPLC). […]

## CC1(C)O[C@@H]2[C@@H](CO[C@@]3(COS(N)(=O)=O)OC(C)(C)O[C@@H]23)O1 [topiramate, 2,3:4,5-Bis-O-(1-methylethylidene)- -D-fructopyranose sulfamate]
[1]
  BCS class: BCS Class I or III
[2]
  solubility in non-aqueous reagents: freely soluble
[3]; purified water, 25 °C, 25 degrees Celsius, read-out: observed solubility in purified water
  solubility: 8300 µg/mL (≈ 24.5 mM)
[3]; strongly alkaline solutions
  pH of maximum aqueous solubility: ~9.5 pH
[3]; 5 °C, 5 degrees Celsius, read-out: observed solubility in water
  solubility: 6400 µg/mL (≈ 18.9 mM)
